Laboratory results taken from BindingDB's records for doi:10.1016/j.bmcl.2004.05.036 (Abbott Laboratories, 2004).

Test: Antiviral activity against HIV protease in absence of human serum

## CCCCN1C(=O)N(Cc2cccc(C(=N)NO)c2)[C@H](Cc2ccccc2)[C@H](O)CN1S(=O)(=O)c1cccc(OC)c1
  EC50: 30 nM
